Experimental data taken from patent US7981871B2, “Modified macromolescules and associated methods of synthesis and use” (University of Utah Research Foundation, priority 2003, dated 2011).

Experiments:
Assay in all cases: Sensitivity to PI3K inhibitor and Taxol in 3-D culture (Carbylan-GSX hydrogels)
Format in all cases: cell-based, Human
CaCo-2 = tested on: CaCo-2
Procedure: (§1) Human breast cancer cell lines (MDA-MB-231 and MDA-MB-468), colon adenocarcinoma cell lines (Caco2, HCT116, and HCA7), and ovarian cancer cell (SK-OV-3) were obtained from American Type Culture Collections (ATCC) and maintained in RPMI 1640 medium (GIBCO) supplemented with 10 mM HEPES, 10% fetal bovine serum (Hyclone), 0.4 mM sodium pyruvate, and […], 100 U/ml penicillin, and 100 ug/ml streptomycin.
(§2) When reaching 80-90% confluence, the above cell lines were trypsinized with 0.25% trypsin containing 1 mM EDTA and suspended in 1.25% (w/v) Carbylan™-S and 3% (w/v) gelatin-DTPH in a 50:50 (v/v) ratio in serum-free RPMI medium (pH 7.4), and then 4% (w/v) solution of PEGDA in DPBS buffer was added to the Carbylan™-S/gelatin-DTPH solution at a ratio of 4:1 (Carbylan™-S :PEGDA, v:v) and mixed by vortexing for 30 second. The final concentration of cells in Carbylan™-GSX solution was 2.0×10^6/ml. Aliquots ([…]) of each reaction mixture loaded with cells were transferred by pipette into 24-well cell culture inserts (Coming incorporated, Coming, N.Y.) with 6.5 mm in diameter and […]. The cell loaded inserts were incubated in incubator (37° C. and 5% CO2) for two hours and then 2 ml of RPMI 1640 medium containing 10% FBS was added into each into each insert. The media were changed every two days. Two weeks after the initial culture, the media were removed from the inserts and changed with 10 mM of LY-294002 (Sigma) and 1 mg/ml of paclitaxel (Sigma) in RPMI 1640 medium containing 0.5% FBS. There were total eight inserts for each reagent each cell line. The media were also changed every two days. Two weeks after the media were changed to LY-294002 and paclitaxel containing media, the media were removed from the inserts and changed with 1.5 ml RPMI 1640 media containing 5% FBS and 15% (v/v) CellTiter 96 aqueous one solution cell proliferation assay (Promega, Madison, Wis.) and incubated in incubator (37° C. and 5% CO2) for three hours and then the reaction solution was transferred into 96-well plate ([…]) and the absorbance was read at 550 nm with an OPTI Max microplate reader (Molecular Devices). The inserts were rinsed twice with DPBS buffer and stained with FDA and PI at RT for 5 min and observed using a confocal laser scanning microscope (LSM 510, Carl Zeiss Microimaging, Inc., Thornwood, N.Y.).

HCA7 = conditions: 10 mM LY-294002 or 1 mg/ml paclitaxel, two weeks
Procedure: as §1, §2

HCT116 = conditions: 10 mM LY-294002 or 1 mg/ml paclitaxel, two weeks
Procedure: as §1, §2

MDA-MB-231 = MDA-MB-231 in Carbylan-GSX; 10 mM LY-294002 or 1 mg/ml paclitaxel; two weeks
Procedure: as §1, §2

MDA-MB-468 = MDA-MB-468 in Carbylan-GSX; 10 mM LY-294002 or 1 mg/ml paclitaxel; two weeks
Procedure: as §1, §2

SK-OV-3 = tested on: SK-OV-3
Procedure: as §1, §2

For `CC(=O)O[C@H]1C(=O)[C@@]2(C)[C@H]([C@H](OC(=O)c3ccccc3)[C@]3(O)C[C@H](OC(=O)[C@H](O)[C@@H](NC(=O)c4ccccc4)c4ccccc4)C(C)=C1C3(C)C)[C@]1(OC(C)=O)CO[C@@H]1C[C@@H]2O` [paclitaxel], the “proliferation (CellTiter 96, absorbance at 550 nm)” value (shortened to “proliferation”) (CaCo-2; CaCo-2 in Carbylan-GSX, 10 mM LY-294002 or 1 mg/ml paclitaxel, two weeks) was “inhibited”, the “cell density in sECM hydrogels (FDA/PI staining)” value (CaCo-2; Caco-2, compared to cells cultured in normal medium) was “decreased” and the “proliferation” value (HCA7) was “inhibited”. For the same compound, the “proliferation” value (HCT116) was “inhibited”, the “proliferation” value (MDA-MB-231) was “Neither LY294002 and paclitaxel showed any inhibition effects” and the “proliferation” value (MDA-MB-468) was “inhibited”. For the same compound, the “3-D morphology (FDA/PI staining)” value (SK-OV-3; SK-OV-3, compared to cells cultured in normal medium) was “no obvious difference” and the “proliferation” value (SK-OV-3; SK-OV-3 in Carbylan-GSX, 10 mM LY-294002 or 1 mg/ml paclitaxel, two weeks) was “Neither LY294002 and paclitaxel showed any inhibition effects”.
